Activity calls are given as the source filed them. The rule behind the calls is not given here.
Assays:
Rattus norvegicus [1] = assay: Antiinflammatory activity in complete freund's adjuvant-induced male Sprague-Dawley rat model of arthritis assessed as reduction in ankle joint swelling at 40 to 80 mg/kg, IG administered once daily for 2 to 4 weeks; assay type: functional, organism-based; details: dose 40-80 mg/kg, time 2-4 weeks
[2] = Acute toxicity in rat assessed as drowsiness at 2000 mg/kg, IG administered as single dose; assay type: organism-based; details: in vivo, po
[3] = Tmax in Sprague-Dawley rat at 10 mg/kg, po measured after 0.25 to 24 hrs by LC-MS/MS analysis; assay type: ADME, organism-based; details: in vivo, time 0.25-24 hrs
RAW264.7 [4] = assay: Cytotoxicity against mouse RAW264.7 cells at 20 uM measured after 24 hrs; assay type: cell-based; details: raw264.7, 24 h
RAW264.7 [5] = assay: Cytotoxicity against LPS-induced mouse RAW 264.7 cells assessed as cell viability measured by MTT assay; assay type: cell-based
[6] = Oral bioavailability in Sprague-Dawley rat at 10 mg/kg measured after 0.25 to 24 hrs hrs by LC-MS/MS analysis; assay type: ADME, organism-based; details: in vivo, time 0.25-24 hrs
[7] = Metabolic stability in rat hepatocytes assessed as half life measured upto 120 mins by LC-MS/MS analysis; assay type: ADME, cell-based, Hepatocyte
[8] = molecular target: T1, Nitric oxide synthase, inducible (Mus musculus, UniProt P29477); assay: Inhibition of LPS induced NO-dependent iNOS activity in mouse RAW 264.7 cells preincubated for 1 hrs followed by LPS stimulation and measured after 24 hrs by Griess reagent based assay; assay type: cell-based, RAW264.7
T1 sequence (P29477 whole entry): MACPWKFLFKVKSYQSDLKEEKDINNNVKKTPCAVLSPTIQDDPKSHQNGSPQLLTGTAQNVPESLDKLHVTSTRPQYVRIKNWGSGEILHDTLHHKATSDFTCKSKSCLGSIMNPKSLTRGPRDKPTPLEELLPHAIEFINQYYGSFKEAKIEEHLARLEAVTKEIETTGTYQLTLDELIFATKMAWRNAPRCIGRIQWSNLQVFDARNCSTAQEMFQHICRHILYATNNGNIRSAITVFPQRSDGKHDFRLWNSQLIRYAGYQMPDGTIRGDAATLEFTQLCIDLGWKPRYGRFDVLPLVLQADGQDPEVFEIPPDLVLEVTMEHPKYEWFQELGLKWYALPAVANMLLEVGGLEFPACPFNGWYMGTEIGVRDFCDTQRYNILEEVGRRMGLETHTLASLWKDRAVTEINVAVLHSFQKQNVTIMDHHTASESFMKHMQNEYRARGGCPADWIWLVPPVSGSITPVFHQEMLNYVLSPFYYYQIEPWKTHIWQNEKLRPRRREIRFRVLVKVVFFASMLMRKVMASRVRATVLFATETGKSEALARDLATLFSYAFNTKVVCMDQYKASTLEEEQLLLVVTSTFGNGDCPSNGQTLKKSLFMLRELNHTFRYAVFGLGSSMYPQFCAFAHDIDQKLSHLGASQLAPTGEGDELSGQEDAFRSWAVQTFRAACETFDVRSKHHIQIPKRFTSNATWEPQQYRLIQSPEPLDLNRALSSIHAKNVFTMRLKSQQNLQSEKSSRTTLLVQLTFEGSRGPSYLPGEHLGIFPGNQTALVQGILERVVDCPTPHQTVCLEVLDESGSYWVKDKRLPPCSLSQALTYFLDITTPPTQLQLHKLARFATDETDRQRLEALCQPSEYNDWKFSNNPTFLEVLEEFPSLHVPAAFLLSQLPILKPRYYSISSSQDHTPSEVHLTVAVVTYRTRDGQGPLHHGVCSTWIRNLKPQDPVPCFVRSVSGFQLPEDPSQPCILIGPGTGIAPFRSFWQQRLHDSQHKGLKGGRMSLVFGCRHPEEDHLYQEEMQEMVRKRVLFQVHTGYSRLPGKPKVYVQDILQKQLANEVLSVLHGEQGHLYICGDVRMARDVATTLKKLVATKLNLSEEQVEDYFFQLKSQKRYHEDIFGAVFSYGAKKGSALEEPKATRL

Cytochrome P450 1A2 = molecular target: T2, Cytochrome P450 1A2 (Homo sapiens, UniProt P05177); assay: Inhibition of CYP1A2 in human liver microsomes using Phenacetin as substrate measured after 20 mins by LC-MS/MS analysis; assay type: ADME
T2 sequence (P05177 whole entry): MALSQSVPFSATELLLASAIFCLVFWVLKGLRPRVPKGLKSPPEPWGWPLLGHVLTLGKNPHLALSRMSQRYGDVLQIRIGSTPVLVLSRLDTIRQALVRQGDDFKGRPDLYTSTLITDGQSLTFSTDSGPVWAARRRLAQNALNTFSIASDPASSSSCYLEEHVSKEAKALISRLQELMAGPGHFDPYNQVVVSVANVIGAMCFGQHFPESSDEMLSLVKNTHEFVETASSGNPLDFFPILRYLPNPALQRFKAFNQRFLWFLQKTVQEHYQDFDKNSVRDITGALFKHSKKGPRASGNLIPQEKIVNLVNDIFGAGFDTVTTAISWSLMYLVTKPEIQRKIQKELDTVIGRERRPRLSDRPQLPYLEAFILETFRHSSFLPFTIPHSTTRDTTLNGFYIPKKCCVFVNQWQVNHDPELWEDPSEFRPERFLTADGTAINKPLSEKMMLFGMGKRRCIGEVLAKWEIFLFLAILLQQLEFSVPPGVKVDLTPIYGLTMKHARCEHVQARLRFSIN

RAW264.7 [9] = assay: Antiinflammatory activity against mouse RAW264.7 cells assessed as inhibition of LPS-induced NO production at 10 uM preincubated for 1 hrs followed by LPS stimulation and measured after 24 hrs by Griess assay relative to control; assay type: functional; details: time 25 hrs
RAW264.7 [10] = assay: Cytotoxicity against mouse RAW 264.7 cells assessed as cell viability by MTT assay; assay type: cell-based
[11] = Acute toxicity in rat assessed as weight loss at 2000 mg/kg, IG administered as single dose; assay type: organism-based; details: in vivo, po
Rattus norvegicus [12] = assay: Antiinflammatory activity in complete freund's adjuvant-induced IG dosed male Sprague-Dawley rat model of arthritis assessed as decrease in IL-6 level in serum after 4 weeks by ELISA; assay type: functional, organism-based; details: dose 40-80 mg/kg
Rattus norvegicus [13] = species on record: Rattus norvegicus; assay: Antiinflammatory activity against freund's adjuvant-induced male Sprague-Dawley rat model of arthritis assessed as decrease INOS expression at 40 to 80, IG after 4 weeks measured by staining based immunohistochemical analysis; assay type: functional, organism-based; details: dose 40-80 mg/kg
Cytochrome P450 2C9 = Cytochrome P450 2C9 (Homo sapiens, UniProt P11712); assay: Inhibition of CYP2C9 in human liver microsomes using Diclofenac as substrate measured after 20 mins by LC-MS/MS analysis; assay type: ADME
[14] = Subacute toxicity in rat assessed as fur wrinkles at 100 to 500 mg/kg, IG administered every other day for 14 days and measured every 2 days; assay type: organism-based; details: in vivo, po, 336 h, dose 100-500 mg/kg, time 14 day
[15] = AUC (0 to infinity) in Sprague-Dawley rat at 1 mg/kg, iv measured by LC-MS analysis; assay type: ADME, organism-based; set-up: time infinity, route intravenous, dose 1 mg/kg; details: in vivo
[16] = Acute toxicity in rat assessed as fur wrinkles at 2000 mg/kg, IG administered as single dose; assay type: organism-based; details: in vivo, po
[17] = Cmax in Sprague-Dawley rat at 10 mg/kg, po measured after 0.25 to 24 hrs by LC-MS/MS analysis; assay type: ADME, organism-based; set-up: route oral, time lower 0.25 hrs, dose 10 mg/kg, time upper 24 hrs; details: in vivo

Chain of Cytochrome P450 2C9 (P11712 whole entry): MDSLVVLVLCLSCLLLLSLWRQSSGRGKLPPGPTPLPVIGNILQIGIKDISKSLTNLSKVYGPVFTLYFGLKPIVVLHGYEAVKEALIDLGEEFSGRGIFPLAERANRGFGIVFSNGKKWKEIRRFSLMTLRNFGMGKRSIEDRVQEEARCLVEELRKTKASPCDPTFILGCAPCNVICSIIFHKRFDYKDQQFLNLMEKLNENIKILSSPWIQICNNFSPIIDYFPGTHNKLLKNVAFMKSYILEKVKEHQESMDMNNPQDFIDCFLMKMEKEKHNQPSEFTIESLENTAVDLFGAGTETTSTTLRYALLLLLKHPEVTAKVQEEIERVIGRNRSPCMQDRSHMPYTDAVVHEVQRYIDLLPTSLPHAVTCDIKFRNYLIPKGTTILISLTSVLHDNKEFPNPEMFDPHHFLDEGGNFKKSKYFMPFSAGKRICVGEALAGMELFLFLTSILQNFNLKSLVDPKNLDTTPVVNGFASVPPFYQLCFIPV

SMILES: COc1cc(/C=C/c2nc(NCc3ccc(C)cc3)c3sccc3n2)cc(OC)c1OC
- Activity (Rattus norvegicus [1]): Active
- Activity [2]: Non-Toxic
- Tmax [3]: 3.33 h
- Activity (RAW264.7 [4]): Non-Toxic
- IC50 (RAW264.7 [5]): > 50 µM
- bioavailability [6]: 29.9%
- half-life [7]: 0.925 h
- IC50 [8]: 0.96 µM
- IC50 (Cytochrome P450 1A2): 42.2 µM
- inhibition at 10 µM (RAW264.7 [9]): 98.3%
- IC50 (RAW264.7 [10]): > 50 µM
- Activity [11]: Non-Toxic
- Activity (Rattus norvegicus [12]): Dose-Dependent Effect
- Activity (Rattus norvegicus [13]): Active
- IC50 (Cytochrome P450 2C9): 8.91 µM
- Activity [14]: Non-Toxic
- AUC(0-inf) [15]: 401 ng·h/mL
- Activity [16]: Non-Toxic
- Cmax [17]: 131 ng/mL
